Test systems include UACC-62 melanoma; MCF7 breast; SF-295 CNS; NCI-H460 lung; T-47D breast; KM12 colon; RPMI-8226 leukemia; SN12C renal; SNB-19 CNS; UACC-257 melanoma.
What all share (assay): inhibition of tumour cell growth, NCI panel, 48 h

This is an account of results in PubChem BioAssay (NCI).

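Assay format: 96-well plates, 48-hour exposure. Abbreviation: GI50, concentration required for 50% inhibition of growth. TGI is the concentration that stops growth completely.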 Bounds are passed on as bounds.

Take `c1ccc2c(c1)-c1ccccc1C2NC1=NCCO1`: the TGI was 38.9 µM in the test on UACC-62 melanoma; 60.8 µM in the test with MCF7 breast; above 100 µM in the test on SF-295 CNS; 27.1 µM in the test with NCI-H460 lung; above 100 µM in the test on T-47D breast; 33.2 µM with KM12 colon. The TGI is 91.9 µM in the test with RPMI-8226 leukemia, above 100 µM with SN12C renal and above 100 µM in the test on SNB-19 CNS.

Turning to `COC(=O)[C@H](Cc1ccccc1)NC(=O)N(CCNC(=O)OC(C)(C)C)c1ccccc1`, the TGI in the test with UACC-62 melanoma, in the test with MCF7 breast, with SF-295 CNS, with NCI-H460 lung, in the test with T-47D breast and in the test on KM12 colon was above 100 µM each time. Also, the TGI with RPMI-8226 leukemia, in the test on SN12C renal and in the test on SNB-19 CNS was above 100 µM throughout.

Regarding `OC(Cc1cc(CC(O)(C(F)(F)F)C(F)(F)F)nc(CC(O)(C(F)(F)F)C(F)(F)F)c1)(C(F)(F)F)C(F)(F)F`, the TGI is 1.6 µM in the test with UACC-62 melanoma; 9.06 µM with MCF7 breast; 2.58 µM in the test on SF-295 CNS; 1.81 µM in the test with NCI-H460 lung; above 10 µM with T-47D breast; 2.42 µM in the test on KM12 colon. For the same compound, the TGI is 5.26 µM in the test with UACC-257 melanoma, above 10 µM in the test on RPMI-8226 leukemia, 7.33 µM with SN12C renal and 8.79 µM in the test with SNB-19 CNS.

As for `O=C(CC(=O)N1N=C(N(c2ccccc2)c2ccccc2)CC1c1ccccc1)Nc1cccc(Cl)c1` (stereo unspecified), the TGI with UACC-62 melanoma, with MCF7 breast, in the test on SF-295 CNS, with NCI-H460 lung, in the test on T-47D breast and with KM12 colon was above 100 µM in each case. Further, the TGI in the test on UACC-257 melanoma, in the test with RPMI-8226 leukemia, in the test on SN12C renal and in the test on SNB-19 CNS was above 100 µM throughout.

With `COc1ccc(C=O)cc1OS(=O)(=O)C(F)(F)C(F)(F)C(F)(F)C(F)(F)F`, the TGI in the test on UACC-62 melanoma was 50.7 µM; in the test on MCF7 breast, above 100 µM; in the test with SF-295 CNS, 53 µM; in the test with NCI-H460 lung, above 93.4 µM; with T-47D breast it was above 100 µM; in the test with KM12 colon, above 74.4 µM. Besides, the TGI was above 100 µM in the test with UACC-257 melanoma, 54.3 µM in the test with RPMI-8226 leukemia, 97.5 µM with SN12C renal and above 100 µM in the test with SNB-19 CNS.

On to `CN(C)CC(C)(C)CN1c2ccccc2Sc2ccccc21`, for which the TGI was found to be 28.2 µM in the test with UACC-62 melanoma; 30 µM with MCF7 breast; 26.8 µM in the test on SF-295 CNS; 26.3 µM with NCI-H460 lung; 29.3 µM in the test with T-47D breast; 25.8 µM in the test with KM12 colon. The TGI came to 24.7 µM in the test on UACC-257 melanoma, 35.8 µM in the test on RPMI-8226 leukemia, 25.9 µM in the test with SN12C renal and 29.5 µM in the test on SNB-19 CNS.

In the case of `C=C(C)[C@H]1CC(=O)[C@@]2(C)C[C@H]3O[C@]3(C)CC/C=C(\C)CC[C@H]12`, the TGI in the test on UACC-62 melanoma is 74.1 µM; in the test with MCF7 breast it was 57.3 µM; with SF-295 CNS, above 100 µM; in the test with NCI-H460 lung, above 100 µM; in the test on T-47D breast, above 100 µM; in the test on KM12 colon, 54.6 µM. Also, the TGI is 55.8 µM with UACC-257 melanoma, 91.9 µM in the test on RPMI-8226 leukemia, 54.9 µM in the test with SN12C renal and above 100 µM in the test on SNB-19 CNS.

On to `COc1cc(N(CCCl)CCCl)ccc1/C=N\NC(=O)c1cccnc1`, for which the GI50 is 10.5 µM with UACC-62 melanoma; 23.8 µM in the test on MCF7 breast; 4.31 µM in the test with SF-295 CNS; 0.403 µM in the test with NCI-H460 lung; 11.4 µM with T-47D breast; 33.6 µM in the test on KM12 colon. Besides, the GI50 was 15.3 µM with UACC-257 melanoma, 30.9 µM with RPMI-8226 leukemia, 30 µM in the test with SN12C renal and 52.8 µM in the test with SNB-19 CNS. The TGI in the test on UACC-62 melanoma was 29.5 µM; in the test on MCF7 breast, above 100 µM; in the test on SF-295 CNS, 35.7 µM; in the test on NCI-H460 lung it was 25.4 µM; with T-47D breast, above 100 µM; with KM12 colon, above 100 µM. In addition, the TGI in the test with UACC-257 melanoma was 63.3 µM; with RPMI-8226 leukemia, above 100 µM; in the test on SN12C renal, above 100 µM; with SNB-19 CNS, above 100 µM.

`N=c1oc2cc(O)ccc2cc1C(=O)Nc1cccc2ccccc12`: the TGI was 14.3 µM with UACC-62 melanoma; 17.8 µM in the test with MCF7 breast; 23.2 µM in the test with SF-295 CNS; 30.2 µM with NCI-H460 lung; 19.6 µM in the test on T-47D breast; above 36.2 µM in the test on KM12 colon. In addition, the TGI is 41.2 µM with UACC-257 melanoma, above 100 µM in the test with RPMI-8226 leukemia, 18.9 µM in the test with SN12C renal and 35.4 µM with SNB-19 CNS.

Turning to `Cn1c(=O)c2c(=O)cc(N)[nH]c2n(C)c1=O`, the TGI in the test with UACC-62 melanoma, in the test on MCF7 breast, in the test with SF-295 CNS, in the test on NCI-H460 lung, with T-47D breast and in the test on KM12 colon was above 100 µM throughout. The TGI in the test on UACC-257 melanoma, with RPMI-8226 leukemia, with SN12C renal and in the test on SNB-19 CNS was above 100 µM in each case.

In the case of `O=C(CC(C(=O)c1cccs1)c1ccc2c(c1)OCO2)c1ccccc1` (stereo unspecified), the TGI with UACC-62 melanoma, in the test on MCF7 breast, in the test with SF-295 CNS, in the test on NCI-H460 lung, with T-47D breast and in the test on KM12 colon was above 100 µM each time. For the same compound, the TGI with UACC-257 melanoma, with RPMI-8226 leukemia, with SN12C renal and with SNB-19 CNS was above 100 µM in each case.

With `CC(C)CC1N=C(OCc2ccccc2)OC1=O` (stereo unspecified), the TGI in the test on MCF7 breast, with SF-295 CNS, in the test with NCI-H460 lung, with T-47D breast, with KM12 colon and with UACC-257 melanoma was above 100 µM in each case. Besides, the TGI in the test on RPMI-8226 leukemia, with SN12C renal and in the test on SNB-19 CNS was above 100 µM in each case.

On to `O[C@@]12Cc3c([nH]c4ccccc34)[C@@H]3Oc4c(-c5ccccc5)ccc5c4[C@@]31CCN(CC1CC1)[C@@H]2C5`, for which the TGI in the test on UACC-62 melanoma came out at 3.32 µM; in the test on MCF7 breast, 3.22 µM; in the test with SF-295 CNS it was 3.5 µM; in the test with NCI-H460 lung, 3.36 µM; in the test on T-47D breast, 4.71 µM; in the test on KM12 colon, 3.35 µM. For the same compound, the TGI in the test on UACC-257 melanoma was 3.45 µM; with RPMI-8226 leukemia, above 100 µM; in the test with SNB-19 CNS, 3.95 µM.
